Data from patent US8946294B2, “Crystalline diacylhydrazine and the use thereof” (Intrexon Corporation, priority 2011, dated 2015).

Experiments:
[1] = Solvent-based stability tests in water/methanol; type: physicochemical; conditions: for Relative stability of polymorphic forms: all three temperatures (25, 45, 55° C.); for Form: 6:4 MeOH:water, at least three days
Source text: A mixture of Compound 1 Forms II, III, IV, and V was slurried in various compositions of methanol/water, or in water, for at least three days at different temperatures.

[2] = Solvent-based stability tests in n-heptane/toluene; type: physicochemical; conditions: 3:2 (v/v) n-heptane:toluene, 6 days
Method: The thermodynamic stability of Form II and Form III as a function of temperature was investigated by suspension equilibration experiments.
54.6 mg of Compound 1 Form III and 61.2 mg of Compound 1 Form II were suspended in […] of 3:2 (v/v) n-heptane:toluene and sonicated. […] In this experiment the starting material likely took up ambient humidity to give Form IV.
18.5 mg of Compound 1 Form III and 28.0 mg of Compound 1 Form II were suspended in 0.4 mL of 3:2 (v/v) n-heptane:toluene and sonicated. After stirring at 60° C. for 6 days the solid was collected by filtration to give Form II.
35.4 mg of Compound 1 Form III and 46.1 mg of Compound 1 Form II were suspended in 0.4 mL of 3:2 (v/v) n-heptane:toluene and sonicated.
40.5 mg of Compound 1 Form III and 45.7 mg of Compound 1 Form II were suspended in 0.4 mL of 3:2 (v/v) n-heptane:toluene and sonicated. After stirring at 55° C. for 6 days the solid was collected by filtration to give Form II.
The solvent-based experiments are in principle thermodynamic stability tests between Compound 1 Forms II and III because mixtures of both forms were suspended. Below 45° C. […] Above 55° C. […] At 50° C. a mixture of both Form II and Form III was obtained in 3:2 (v/v) n-heptane:toluene. This is not unexpected. Close to the transition temperature, the thermodynamic driving force would be expected to be very small leading to slow transition rates. Possibly the kinetics of transformation were too slow for the transformation to occur on the timescale of the experiment. According to these suspension equilibration experiments, Form II and Form III are enantiotropic polymorphs. The thermodynamic transition temperature between Form II and Form III is between 45° C. and 55° C.

[3] = Solvent-based stability tests in n-heptane/ethanol; type: physicochemical; conditions: 95:5 heptane:ethanol
Method: Compound 1 Form II, Compound I Form III, or a mixture of Compound 1 Forms II and III were slurried in 95:5 heptane:ethanol (anhydrous). After one day at various temperatures, a portion of the slurry was filtered and analyzed by XRPD. A solution mediated transition occurs at 45-47° C. in 95:5 heptane:ethanol. Below 45° C.

[4] = Mechanical stability (IR press and grinding, PXRD); type: physicochemical; conditions: pressed with 10 metric tons for 30 min; vigorously ground
Method: (§1) Two types of experiments elucidated the mechanical stability of Compound 1 Form II. First, about 200 mg of Form II was pressed in an IR press with a force of 10 metric tons (13 mm diameter of pellet) for 30 min. The resulting pellets were analyzed by PXRD. Second, about 150 mg of Form II was vigorously ground and analyzed by PXRD.
as §1, with “1 Form III. First, about” for “1 Form II. First, about”, “of Form III was vigorously” for “of Form II was vigorously”

[5] = Storage under CO2 atmosphere and 75-76% relative humidity; type: physicochemical; conditions: open container, 1 month; for hydrate (Form IV) or CO2 adduct formation: 1 bar CO2, 75-76% relative humidity; for Form after storage: 1 bar CO2, over saturated NaCl solution (75-76% relative humidity)
[6] = Dynamic vapor sorption (DVS) hygroscopicity; type: physicochemical; conditions: for water content gained: from 0% relative humidity to 85% r.h.
Source text: Projekt Messtechnik SPS11-100n multi-sample water vapor sorption analyzer or Surface Measurement Systems Ltd. DVS-1 water vapour sorption analyzer. The sample was allowed to equilibrate at 50% r.h. before starting a pre-defined humidity program.
Program: 50% r.h.→0% r.h.→95% r.h.→50% r.h., Δr.h.=5%/h
Hygroscopicity was classified as follows: • deliquescent sufficient water is absorbed to form a liquid • very hygroscopic increase of the mass is ≧15% • hygroscopic increase of the mass is less than 15% and greater than or equal to 2% • slightly hygroscopic increase of the mass is less than 2% and greater than or equal to 0.2% • not hygroscopic increase of the mass is less than 0.2% Thermogravimetry Coupled to Fourier-Transform Infrared Spectroscopy (TG-FTIR): […]

[7] = Suspension equilibration of Form I-A in non-solvate forming solvents; type: physicochemical; conditions: at 5° C. and room temperature
Method: 109 mg of Compound 1 Form I-A was suspended in 2.0 mL of cyclohexane and sonicated. After stirring for 14 days at room temperature, the solid was collected by filtration and dried under vacuum for 30 minutes to give Form III.
105 mg of Compound 1 Form I-A was suspended in 0.7 mL of 3:2 (v/v) n-heptane/toluene and sonicated. After stirring for 16 days at 5° C., the solid was collected by filtration and dried under vacuum for 30 minutes to give Form III.
102 mg of Compound 1 Form I-A was suspended in 0.7 mL of 10:1 (v/v) n-heptane/toluene and sonicated. After stirring for 16 days at 5° C., the solid was collected by filtration and dried under vacuum for 30 minutes to give Form III.
115 mg of Compound 1 Form I-A was suspended in 0.7 mL of 1:10 (v/v) n-heptane/toluene and sonicated. After stirring for 16 days at 5° C., the solid was collected by filtration and dried under vacuum for 30 minutes to give Form III.

[8] = Reinvestigation of Form IX sample by PXRD and FT-Raman; type: physicochemical; conditions: PXRD and FT-Raman spectroscopy
Method: 198 mg of Compound 1 Form I-A was dissolved in 0.2 mL acetone and 2.0 mL of cyclohexane. The solution was stirred at 5° C. for 4 hours than evaporated at 5° C. for 2 hours to obtain a precipitate. The precipitate was collected by filtration and dried under vacuum for 1 hour to give Form IX (FIGS. 29 and 30). […] The sample was likely incompletely dried but might also correspond to a cyclohexane solvate.

[9] = Solid state stability at 60-65° C.; type: physicochemical; conditions: closed cap vial
Method: Compound 1 Form II, Compound 1 Form III, and compound 1 Form IV were stored at 60-65° C. in a closed cap vial for various lengths of time. Compound 1 Forms II and III remained unchanged under these conditions. Compound 1 Form IV is converted to a mixture of Forms II and III after 10 days at 60-65C.

[10] = molecular target: C. fumiferana EcR (CfEcR-DEF) (Choristoneura fumiferana, UniProt O77240); assay: Cellular gene-switch assay, WT-Cf EcR, luciferase reporter; type: cell-based; conditions: NIH3T3 cells
Method: (§2) Cellular gene-switch assays were performed by transfecting the following constructs in mouse embryonic fibroblast cells (NIH3T3). The wild-type D-, E-, and F-domains from a) C. fumiferana EcR (CfEcR-DEF), and b) C. fumiferana EcR with a E274V/V390I/Y410E mutation (VY-CfEcR-DEF), were fused to a GAL4-DBD and placed under the control of the CMV promoter in a pBIND vector (Promega Corporation, Madison, Wis., USA). A chimeric RXR from Homo sapiens RXRb and Locusta migratoria RXR fused to VP16-AD and under the control of an SV40e promoter has previously described. (See, Kothapalli et al., Dev. Genet. 17:319-330 (1995); Palli, et al., FEBS J. 272:5979-5990 (2005); and U.S. Pat. No. 7,935,510 B2). The inducible luciferase reporter plasmid, pFRLuc, (Stratagene Cloning Systems, La Jolla, Calif., USA) contains five copies of the GAL4 response element and a synthetic minimal promoter.
(§3) Under standard assay conditions, Compound 1 was tested at 8 doses from 0.01-33 μM and the final DMSO concentration was 0.33% in both control and treatment wells. When necessary, Compound 1 was tested at lower concentrations. After a 48-hour post-treatment and transfection incubation, the cells were assayed for luciferase activity using the Bright-GloTM Luciferase Assay System (Promega Corporation, Madison, Wis., USA) following the manufacturer's instructions. […]

[11] = molecular target: C. fumiferana EcR with a E274V/V390I/Y410E mutation (VY-CfEcR-DEF) (Choristoneura fumiferana, UniProt O77240); assay: Cellular gene-switch assay, VY-Cf EcR, luciferase reporter; type: cell-based; conditions: NIH3T3 cells
Method: as §2, §3

[12] = 48-hour incubation, luciferase activity
[13] = maximum fold induction relative to a positive control

CCC[C@@H](N(NC(=O)c1cccc(OC)c1CC)C(=O)c1cc(C)cc(C)c1)C(C)(C)C [Compound 1 Form V, (R)-3,5-dimethyl-benzoic acid N-(1-tert-butyl-butyl)-N′-(2-ethyl-3-methoxy-benzoyl)-hydrazide]
Relative stability of polymorphic forms ([1]; methanol content of more than 60% volume): most stable polymorphic form

CCC[C@@H](N(NC(=O)c1cccc(OC)c1CC)C(=O)c1cc(C)cc(C)c1)C(C)(C)C [Compound 1 Forms II and III, (R)-3,5-dimethyl-benzoic acid N-(1-tert-butyl-butyl)-N′-(2-ethyl-3-methoxy-benzoyl)-hydrazide]
Form obtained ([2]; 45° C.): mixture of Form III and Form IV | Form obtained ([2]; 50° C.): mixture of Form II and Form III | Form obtained ([2]; 55° C.): Form II | Form obtained ([2]; 60° C.): Form II | solution mediated transition temperature [3]: 45-47 °C

CCC[C@@H](N(NC(=O)c1cccc(OC)c1CC)C(=O)c1cc(C)cc(C)c1)C(C)(C)C [Compound 1 Form II, (R)-3,5-dimethyl-benzoic acid N-(1-tert-butyl-butyl)-N′-(2-ethyl-3-methoxy-benzoyl)-hydrazide]
Change in crystalline form after mechanical treatment (PXRD) [4]: no change in crystalline form | hydrate (Form IV) or CO2 adduct formation [5]: no indication of hydrate (Form IV) or CO2 adduct formation | Form after storage [5]: unchanged Form II | Hygroscopicity (DVS) [6]: non- to slightly-hygroscopic | water content gained [6]: 0.1 wt.-%

CCC[C@@H](N(NC(=O)c1cccc(OC)c1CC)C(=O)c1cc(C)cc(C)c1)C(C)(C)C [Compound 1 Forms II, III, IV, and V, (R)-3,5-dimethyl-benzoic acid N-(1-tert-butyl-butyl)-N′-(2-ethyl-3-methoxy-benzoyl)-hydrazide]
Form ([1]; 45° C.): IV and V | Form ([1]; 55° C.): IV and V

CCC[C@@H](N(NC(=O)c1cccc(OC)c1CC)C(=O)c1cc(C)cc(C)c1)C(C)(C)C [Compound 1 Form III, (R)-3,5-dimethyl-benzoic acid N-(1-tert-butyl-butyl)-N′-(2-ethyl-3-methoxy-benzoyl)-hydrazide]
Change in crystalline form after mechanical treatment (PXRD) [4]: no change in crystalline form | hydrate (Form IV) or CO2 adduct formation [5]: no indication of hydrate (Form IV) or CO2 adduct formation | Form after storage [5]: unchanged Form III | Hygroscopicity (DVS) [6]: non- to slightly-hygroscopic | water content gained [6]: 0.1 wt.-% | Relative stability of forms [7]: more stable than Form II

CCC[C@@H](N(NC(=O)c1cccc(OC)c1CC)C(=O)c1cc(C)cc(C)c1)C(C)(C)C [Compound 1 Form IX, (R)-3,5-dimethyl-benzoic acid N-(1-tert-butyl-butyl)-N′-(2-ethyl-3-methoxy-benzoyl)-hydrazide]
Form on reinvestigation of the sample [8]: spontaneously transformed into Form II

CCC[C@@H](N(NC(=O)c1cccc(OC)c1CC)C(=O)c1cc(C)cc(C)c1)C(C)(C)C [Compound 1 Form IV, (R)-3,5-dimethyl-benzoic acid N-(1-tert-butyl-butyl)-N′-(2-ethyl-3-methoxy-benzoyl)-hydrazide]
Form after storage ([9]; 3 days): II, III, and IV | Form after storage ([9]; 10 days): II and III | Form after storage ([9]; 18 days): II and III | Relative stability of polymorphic forms ([1]; methanol content of less than 60% volume): most stable polymorphic form

CCC[C@@H](N(NC(=O)c1cccc(OC)c1CC)C(=O)c1cc(C)cc(C)c1)C(C)(C)C [Compound 1, (R)-3,5-dimethyl-benzoic acid N-(1-tert-butyl-butyl)-N′-(2-ethyl-3-methoxy-benzoyl)-hydrazide]
EC50 [10, 12]: 1.8 nM | Rel Max FI [10, 13]: 0.99 | EC50 [11, 12]: 0.133 nM | Rel Max FI [11, 13]: 0.88
